Here are results for six compounds from US8765678B2, “Inhibition of the renin-angiotensin system for the treatment of renal, vascular and cartilage pathology” (Mor Research Applications Ltd., priority 2005, dated 2014).

In assay [1] the test system is rats with PAN nephrosis. Put plainly: Blood and urine tests in rats with PAN nephrosis. It counts as in vivo, rat. The note with it: Wistar rats; PAN 75 mg/kg tail vein; enalapril 50 mg/L in drinking water from 3 days prior to PAN; blood day 10. Here is the method:
(§1) Animals and treatment regimen—Twenty-six male Wistar rats (Belinson, Israel, 220-260 gr each) were housed in individual metabolic cages, and allowed free access to a standard diet and water. Following an acclimatization period of 3 days, the rats were randomized into three groups: controls, puromycin aminonucleoside-treated (PAN-treated) and PAN+ enalapril treated. Six controls were injected with 0.9% NaCl, and 20 rats were injected with PAN (75 mg/kg, Sigma, St. Louis, Mo.) through the tail vein. Ten of the latter were treated with enalapril (Merck Research Laboratories, 50 mg/L) in their drinking water 3 days prior to PAN injection. On day 9, 24-hour urine collections were performed and the protein content was measured using the Beckman Array-Protein system. On day 10, rats were weighed and blood was collected for measurement of serum albumin, creatinine and cholesterol (Autoanalyzer, Hitachi, Japan). All animal experimentation was conducted according to the guidelines established by the Rabin Medical Center ethical committee for the Care and Use of Laboratory Animals

In assay [2] the test system is Rat mesangial cells (RMC). The assay is described as follows: Calorimetric assay of cell-associated GAGs. It counts as cell-based. The note with it: for cell-associated GAGs: 36 hours. Here is the method: (§2) Rat mesangial cells (RMC): RMC derived from Sprague-Dawley rats (#ATCC-mesangial-CRL-2573) were cultured in DMEM supplemented with 15% fetal calf serum (FCS) and antibiotics, according to ATCC instructions. Mesangial cells are derived from the glomerular interstitium of the kidney and thus serve as a valuable tool for the analysis of the GBM.
Calorimetric assay: Cell-associated GAGs were isolated from RMC by cetylpyridinium chloride (CPC, Sigma) precipitation, as described by (Nevo et al., 1972). Briefly, cells were rendered quiescent in 2% FCS for 24 hours (i.e., starvation conditions), then incubated in DMEM for 36 hours with PAN 40 μg/ml (Sigma), in the presence of increasing doses of enalaprilat [(E), the active form of enalapril], according to the following protocol: control, PAN, PAN+E 200 μg/ml, PAN+E 400 μg/ml, PAN+E 800 μg/ml. Following thorough rinsing in PBS, RMC were harvested using 0.05% trypsin/EDTA. Following addition of a buffer containing 0.1 M sodium acetate, 0.005 M EDTA (Sigma), 0.005 M cysteine (Sigma), and 0.1% papain (Sigma), pH 5.4, the mixtures were incubated for 48 hours at 65° C. and dialyzed for 24 hours against distilled water. NaCl was added to the dialysate to a final concentration of 30 mM, and mixed well. GAGs were precipitated by the addition of CPC to a final concentration of 0.5% and the solution was incubated overnight at 37° C. The precipitate was collected by centrifugation, dissolved in 2 M CaCl2, reprecipitated with ethanol:ether (2:1), collected by centrifugation and dried. GAGs were determined calorimetrically (uronic acid content×3.3=GAG content) using heparan sulfate as standard and expressed as μg GAGs/10^6 cells.

Assay [3] deals with Chondrocytes. Put plainly: Radioactive assay (^35S labeling) of cell-associated GAGs in chondrocytes. It counts as cell-based. Here is the method: Chondrocytes: Tissue bits from articular cartilage were incubated in-vitro and explant cell cultures were established as described [Nevo et al., 1972, Dev Biol 28: 219-228]. The cell cultures were assessed by immunohistochemistry.
(§3) Radioactive assay (^35S labeling): Cells were grown to confluence, and were rendered quiescent in 2% FCS for 24 hours, following which they were transferred to serum-free medium plus one of the following additives: control, PAN 40 μg/ml, PAN+E 200 μg/ml, PAN+E 400 μg/ml, PAN+E 800 μg/ml, PAN+C10^−7M candesartan in the presence of 1 μCi/ml ^35S. Following 24 hours, medium was collected, cells were harvested by trypsinization, and aliquots obtained for cell and protein measurements. Cells were digested with papain as described, followed by extensive dialysis against water containing a non-radioactive sodium sulfate, until water contained less than 100 cpm/ml. Dialysate was transferred to Corex tubes and the same procedure was carried out as described for non-radioactive GAGs. Radioactivity was measured in a beta-counter.

Assay [4] deals with rats with PAN nephrosis. The assay is described as follows: Electron microscopy morphology of kidney sections. It counts as in vivo. The note with it: PAN injected rat kidney, without or with enalapril treatment. Here is the method:
as §1
Tissue preparation: The kidneys were removed rapidly and placed on ice and the cortices were separated from the medulla. Slices of each kidney were fixed in 0.5% glutaraldehyde in phosphate buffered saline (PBS), pH 7.4 for morphological and histochemical studies. […]

Assay [5] has as its system Rat mesangial cells (RMC). The assay is described as follows: Radioactive assay (^35S labeling) of cell-associated GAGs in RMC. The note with it: for cell-associated GAGs (^35S), % of control: RMC. It counts as cell-based. Here is the method: as §2, §3
The subject of assay [6] is GBM of nephrotic PAN rats. The assay is described as follows: CCG binding to the GBM, electron microscopy histochemistry and morphometry. It counts as in vivo, rat. To be noted: for CCG binding to the GBM (electron micrograph): PAN injected rat kidney, without or with enalapril treatment; for CCG binding, particles/μm^2 GBM (morphometric analysis): PAN rats, non-treated or enalapril-treated, control 67.3+5.6; for anionic GAG sites / preservation of GAGs in the GBM: nephrotic PAN rats. The protocol:
as §1
Tissue preparation: The kidneys were removed rapidly and placed on ice and the cortices were separated from the medulla. Slices of each kidney were fixed in 0.5% glutaraldehyde in phosphate buffered saline (PBS), pH 7.4 for morphological and histochemical studies. For electron microscopy (EM), 1 mm^3 tissue blocks of GA-fixed kidneys were washed, dehydrated in ethanol, and embedded in LR-white resin (Polysciences, Wash. Pa.). For EM morphology, similar tissue blocks were post-fixed with 1% Osmium tetroxide (OsO4) in Veronal-acetate buffer, pH 7.4, for 1 hour at 4° C., dehydrated in ethanol and propylene oxide, and embedded in araldite (Polysciences).
Electron microscopy morphology and histochemistry: For EM morphology, ultrathin araldite sections were mounted on 400 mesh grids, stained with uranyl acetate and lead citrate, and coated with carbon. F or EM histochemistry, ultrathin LR-white sections were mounted on 200 mesh nickel grids, coated with formvar films and impregnated with carbon. Polycationic colloidal gold (CCG) was prepared by stabilization of colloidal gold, 12 nm with poly-L-lysine, as described by Weinstein et al., [J Am Soc Nephrol 8: 586-595, 1997]. The sections were stained with CCG, rinsed, and stained with saturated uranyl acetate in 50% ethanol. Examination of all sections was carried out using a JEOL-100B EM at 80 KV.
Morphometry: Analysis of the CCG labeling densities was performed in a blind manner on LR-white-embedded kidney tissue stained with CCG. Analysis was carried out by calculating the density of gold particles/1 μm^2 area of randomly cut membranes. Five rats from each group were studied. In each rat, 100 measurements from 10 glomeruli were performed. All measurements were carried out on digitized electron micrographs at a magnification of 5000, using the NIH-Image 1.49 program for the Macintosh.

Assay [7] concerns Human umbilical vein endothelial cells (HUVEC). The assay is described as follows: Radioactive assay (^35S labeling) of cell-associated GAGs in endothelial cells. It counts as cell-based. Here is the method:
Endothelial cells: Human umbilical vein endothelial cells (HUVEC) were isolated by collagenase treatment. Cultures were established in M-199 medium containing 10% FCS, 25 μl/ml endothelial mitogen (Biomedical Technologies, Mass., USA) and antibiotics. HUVEC were passaged by treatment with 0.25% trypsin/0.02% EDTA, and passages 2-3 were used for experiments.
as §3

The subject of assay [8] is Osteoarthritic-induced rat. The assay is described as follows: Osteoarthritis model of partial meniscectomy, intra-articular ACE-I gel. It counts as in vivo. To be noted: rats, composite gel containing 5% captopril in the joint, 6 weeks. An excerpt:
Osteoarthritis (OA) was induced in 32 rats using the model of partial meniscectomy of Rolli Moskowitz [Moskowitz, R W and Goldberg V M, J. Rheumatol. 1987 May; 14 Spec No:116-8; Moskowitz, R W et al., Ann Rheum Dis. 1981 December; 40(6):584-92]. The tissues of the control rats undergoing partial meniscectomy (8 rats) were immediately closed by suturing, while to the ACE-I treated group (24 rats), immediately following post partial meniscectomy, a composite gel containing ACE-I (5% captopril) was added prior to suturing the joint layers. After 6 weeks the animals were sacrificed. Prior to termination of the experiment a physical checkup ensured the degree of limping and movement limitation of the operated lower limb using an apparatus conducting a digital measurement of the degree of disability, translated to the pressure in grams activated by the operated limb, versus the healthy limb. Histological sections of the joint, femur and tibia, were prepared and stained with hematoxylin-eosin (H&E) as well as with Alcian blue at pH 2.5 and 1.0, and Masson's trichrome stain (Dako, Calif., U.S.A.). Together, these staining techniques assess proteoglycan content and extracellular matrix deposition.

For assay [9], the system named is inflammatory arthritis in mice. To be noted: Dalbeth et al., Rheumatology 44:24-31, 2004; cited from earlier work.
Where [10] appears, read: chondrocytes pretreated with puromycin.
Setting [11] is: chondrocytes, pretreatment with puromycin + enalaprilat 200 μg/ml.

Entries after “also recorded” stand apart in the source; their conditions may differ.

Turning to `CN(C)c1ncnc2c1ncn2[C@@H]1O[C@H](CO)[C@@H](N)[C@H]1O` [PAN, puromycin aminonucleoside], the serum creatinine in [1] was determined as 0.60 ± 0.01 mg/dL. Also, in assay [2] (PAN 40 μg/ml, control 5.03+0.6), the “cell-associated GAGs” value was 2.35±0.54 μg GAGs/106 cells. Besides, in assay [3] (setting [10]), the “^35S-GAG cpm ± SD” value is recorded as 4333 ± 108 cpm and the “^35S-GAG, % of control culture” value amounted to 68%. In addition, in assay [4], the “podocyte architecture (electron microscopy)” value is “loss of podocyte architecture in the glomeruli with flattening and effacement of foot processes”. The “cell-associated GAGs (^35S), % of control” value in [5] (PAN 40 μg/ml, 24 hours) was determined as 69%. In addition, in assay [6], the “CCG binding to the GBM (electron micrograph)” value is on record as “marked decrease in CCG binding to the GBM”; the “CCG binding, particles/μm^2 GBM (morphometric analysis)” value worked out at 39.1±1.0 particles/μm^2 GBM; the “anionic GAG sites / preservation of GAGs in the GBM” value is given as “decreased anionic GAG sites in the GBM”. The “cell associated GAGs (^35S), % of control” value in assay [7] (PAN 40 μg/ml) was determined as 81%.
With `CCOc1nc2cccc(C(=O)O)c2n1Cc1ccc(-c2ccccc2-c2nnn[nH]2)cc1` [candesartan], the “cell-associated GAGs (^35S), % of control” value came to 76 ± 6.2% in assay [5] (PAN + candesartan 10^−7 M (first column of that head, c3)) and 102% in [5] (PAN + candesartan 10^−7 M (second column of that head, c4)). In assay [7] (PAN + candesartan 10^−7 M), the “cell associated GAGs (^35S), % of control” value came to 107%.
On to `C[C@H](CS)C(=O)N1CCC[C@H]1C(=O)O` [captopril], for which, in [8], the OA manifestations entry was “only a mild initiation of OA, evident by minimal fibrillations and cell cloning; also recorded: slows down, and minimizes the OA manifestations”; the “articular cartilage histology (cellularity, proteoglycans)” value is recorded as “highly cellular, with a dense presentation of proteoglycans”.
In [1], `CCOC(=O)[C@H](CCc1ccccc1)N[C@@H](C)C(=O)N1CCC[C@H]1C(=O)O` [enalapril] gave a serum cholesterol of 91.7 ± 10.7 mg/dL and a serum creatinine of 0.60 ± 0.02 mg/dL. Moreover, in [6], the “CCG binding to the GBM (electron micrograph)” value is listed as “intense CCG binding similar to control”; the “CCG binding, particles/μm^2 GBM (morphometric analysis)” value is given as 56.0±5.5 particles/μm^2 GBM; the “anionic GAG sites / preservation of GAGs in the GBM” value is reported as “beneficial effect on the preservation of GAGs in the GBM”.
Consider `C[C@H](N[C@@H](CCc1ccccc1)C(=O)O)C(=O)N1CCC[C@H]1C(=O)O` [enalaprilat], for which the “cell-associated GAGs” value is reported as 2.43+0.42 μg GAGs/10^6 cells in assay [2] (PAN 40 μg/ml + E 200 μg/ml), 2.8+0.65 μg GAGs/10^6 cells in assay [2] (PAN 40 μg/ml + E 400 μg/ml) and 5.3±0.43 μg GAGs/10^6 cells in assay [2] (PAN 40 μg/ml + E 800 μg/ml). The “GAG content, dose dependence” value in assay [2] (PAN 40 μg/ml + enalaprilat 200-800 μg/ml) is given as “dose-dependent rise in GAG content”. Further, the “^35S-GAG, % of control culture” value worked out at 108% in assay [3] (chondrocytes, in the presence of enalaprilat 200 μg/ml, no puromycin) and 152% in [3] (setting [11]). Also, the “^35S-GAG cpm ± SD” value is 6820 ± 1651 cpm in assay [3] (chondrocytes, in the presence of enalaprilat 200 μg/ml, no puromycin, control culture 6331 ± 1075) and 9636 ± 1848 cpm in assay [3] (setting [11]). In assay [5] (PAN + enalaprilat 800 μg/ml), the “cell-associated GAGs (^35S), % of control” value is 80%. Moreover, the “GAG synthesis (incorporation of ^35S), summary statement” value in [5] (cell type not given, in the presence of PAN) was “significantly increased GAG synthesis to control levels”. Also, the “cell associated GAGs (^35S), % of control” value in assay [7] (PAN + enalaprilat 800 μg/ml) is 96%.
For `CCOC(=O)[C@H](CCc1ccccc1)N[C@@H](C)C(=O)N1Cc2ccccc2C[C@H]1C(=O)O` [quinapril], the “inflammatory arthritis / disease activity” value in assay [9] was “suppress inflammatory arthritis”.
